According to patent publication US20240245714A1, “COMPOSITION AND METHODS USING COMBINATION OF NARH AND NR TO PRODUCE INTRACELLULAR NICOTINAMIDE ADENINE DINUCLEOTIDE (NAD+)” (SOCIETE DES PRODUITS NESTLE S.A., priority 2021, published 2024):

Columns and labels:
RAW 264.7 cells = assay: NAD+ induction in RAW 264.7 cells; format: cell-based; details: RAW 264.7 mouse macrophages, 2 hours, NARH and NR 0.5 mM
Description: (§1) RAW 264.7 cells were treated with dihydronicotinic acid riboside (NARH) and nicotinamide riboside (NR), alone or in combination for 2 hours. NARH and NR were used at the concentration of 0.5 mM. After treatment, cells were scraped and collected for NAD+ and protein content measurements. NAD+ was extracted and quantified using an EnzyChrom NAD/NADH Assay Kit (BioAssay Systems; #E2ND-100) according to the manufacturer's instructions. Proteins were quantified with BCA Protein Assay Kit (Pierce™; #23225). All results are expressed as mean+/−SD of n=2-4. NARH vs control P=0.8130; NR vs control P=0.0788; NRH+NR vs control P=0.0087.
as §1, with “#23225).” for “#23225). All results are expressed as mean+/−SD of n=2-4. NARH vs control P=0.8130; NR vs control P=0.0788; NRH+NR vs control P=0.0087.”

MEF cells = assay: NAD+ induction in MEF cells; format: cell-based; details: MEF mouse fibroblast, 2 hours, NARH and NR 0.5 mM
Description: as §1, with “MEF” for “RAW 264.7”, “trypsinized” for “scraped”, “n=2.” for “n=2-4.”, “P=0.7581;” for “P=0.8130;”, “P=0.5337;” for “P=0.0788;”, “P=0.0002.” for “P=0.0087.”
as §1, with “MEF” for “RAW 264.7”, “trypsinized” for “scraped”, “#23225).” for “#23225). All results are expressed as mean+/−SD of n=2-4. NARH vs control P=0.8130; NR vs control P=0.0788; NRH+NR vs control P=0.0087.”

Compound	NAD+ induction (RAW 264.7 cells)	NAD+ induction (MEF cells)
NC(=O)c1ccc[n+]([C@@H]2O[C@H](CO)[C@@H](O)[C@H]2O)c1 [NR, nicotinamide riboside]	not NARH or NR alone, induces NAD+	not NARH or NR alone, induces NAD+
O=C(O)C1=CN([C@@H]2O[C@H](CO)[C@@H](O)[C@@H]2O)C=CC1 [NARH, dihydronicotinic acid riboside]	not NARH or NR alone, induces NAD+	not NARH or NR alone, induces NAD+
